Results as given in PubChem BioAssay (NCI).
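A five-concentration, 48-hour dose response in 96-well plates underlies each endpoint, interpolated linearly between surrounding concentrations. TGI is the concentration that stops growth completely.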

Columns and labels:
Test in all cases: inhibition of tumour cell growth, NCI panel, 48 h
A549 NSCLC = tested on: A549 NSCLC
KM12 colon = tested on: KM12 colon
M14 melanoma = tested on: M14 melanoma
MALME-3M melanoma = tested on: MALME-3M melanoma
MDA-MB-231 breast = tested on: MDA-MB-231 breast
MDA-MB-435 = tested on: MDA-MB-435
MOLT-4 leukemia = tested on: MOLT-4 leukemia
NCI-H460 lung = tested on: NCI-H460 lung
NCI/ADR-RES ovarian = tested on: NCI/ADR-RES ovarian
SK-MEL-2 melanoma = tested on: SK-MEL-2 melanoma

SMILES	TGI (A549 NSCLC) [µM]	TGI (KM12 colon) [µM]	TGI (M14 melanoma) [µM]	TGI (MALME-3M melanoma) [µM]	TGI (MDA-MB-231 breast) [µM]	TGI (MDA-MB-435) [µM]	TGI (MOLT-4 leukemia) [µM]	TGI (NCI-H460 lung) [µM]	TGI (NCI/ADR-RES ovarian) [µM]	TGI (SK-MEL-2 melanoma) [µM]
OC1(c2ccc(Cl)cc2)c2ccccc2C2=NCc3ccccc3CN21 (stereo not given)	19.2	11.6	8.08	27.1	37.9	22.7	> 47.6	23.7	26.2	16.9
O=C(NC(CO)CO)c1ccc2cc(C(=O)N3CC(CCl)c4ccc([N+](=O)[O-])cc43)[nH]c2c1 (stereo not given)	> 100	> 100	> 100	> 100	> 100	> 100	> 100	> 100	> 100	> 100
O=C(CC(=O)Nc1ccccc1Cl)NNC(Sc1ccccc1)c1cc(N=Nc2ccc(Br)cc2)ccc1O (stereo not given)	> 10	5.04	2.68	8.73	8.68	> 10	1.75	2.86	5.61	> 10
c1ccc2nn(C3CCCCO3)nc2c1 (stereo not given)	> 100	> 100	> 100	> 100	> 100	> 100	> 100	> 100	> 100	> 100
c1csc(-c2nnc(C34CC5CC(CC(C5)C3)C4)o2)c1	> 100	> 100	> 100	39.4	45.7	> 100	60	> 100	57	55.4
Cc1ccc(CC(=O)Nc2ccc(NC(=O)CNC(=O)/C=C/c3ccc(-c4ccccc4)cc3)cc2C(=O)c2ccccc2)cc1	5.37	14.5	17.3	12.3	9.21	16.1	15.3	11.1	29.8	35.3
O=C1CC(Cl)c2c(Cl)sc(Cl)c21 (stereo not given)	12.7	4.03	3.94	6.63	> 25.7	6.34	2.37	40	> 28.5	> 25.5
CN(/N=C/c1ccc(Cl)c(Cl)c1)C1=NCCN1	> 100	67.6	31.6	36.9	77.2	44.6	59.8	> 100	> 100	43.6
CN1N(c2ccccc2)C(=O)C2=NC=C(C#N)C(=N)C21C (stereo not given)	> 100	> 100	> 100	> 100	> 100	> 100	> 100	> 100	> 100	> 100
O=C1OC(C(O)C(O)C(O)CO)C(O)C1O (stereo not given)	> 100	> 100	> 100	> 100	> 100	> 100	> 100	> 100	> 100	> 100
C/C(=N\n1c(Cc2ccccc2)n[nH]c1=O)c1ccc([N+](=O)[O-])cc1	> 100	> 100	> 100	> 100	> 100	> 100	> 100	> 100	> 100	> 100
CCOC(=O)/C=C1/Nc2cc(F)c(F)cc2NC1=O	> 100	> 100	> 100	> 100	> 100	> 100	> 100	> 100	> 100	> 100
Cc1ccc(NC(=O)CC(=O)N2N=C(c3ccccc3)C(N=Nc3ccc(S(=O)(=O)CCOS(=O)(=O)O)cc3)C2=O)cc1 (stereo not given)	> 100	> 100	> 100	> 100	> 100	> 100	> 100	> 100	> 100	> 100
c1ccc(-c2nc3ccccc3n3nnnc23)cc1	> 100	> 100	> 100	> 100	> 100	> 100	> 100	> 100	> 100	> 100
COc1cnnc2c(C)c(-c3ccccc3)nn12	> 100	> 100	> 100	> 100	> 100	> 100	> 100	> 100	> 100	> 100
CC(C)C(/C=C/c1ccccc1)=N\NC(=S)NN	> 100	> 100	> 100	> 100	> 100	> 100	> 100	> 100	> 100	> 100
